Test results from US20100298141A1, “SUBSTITUTED PYRIDINE N-OXIDE HERBICIDES” (E. I. DU PONT DE NEMOURS AND COMPANY, priority 2007, published 2010).

Key:
crabgrass = test: Test A pre-/postemergence greenhouse test; type: in vivo, Digitaria sanguinalis; details: for Plant response rating, Crabgrass, Large: 0 to 100 scale where 0 is no effect and 100 is complete control; for Crabgrass, Large plant response rating: 0 to 100 scale
In short: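 Each test compound, dissolved in a non-phytotoxic solvent mixture with surfactant, was sprayed directly onto seeded soil (loam/sand blend) and, at the same moment, onto seedlings carrying one to two leaves. Around ten greenhouse days later, plants were rated visually for injury relative to untreated controls.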

catchweed bedstraw = test: Test C pre-/postemergence test; type: in vivo, Galium aparine; details: for Plant response rating, Galium: scale 0 to 100 (0 no effect, 100 complete control)
In short: (§1)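 Test chemicals were formulated with surfactant in a non-phytotoxic solvent and sprayed both on freshly planted seeds (preemergence) and on 1- to 4-leaf plants of 2–18 cm (postemergence). Flooded-paddy pots received compound directly into 3 cm of standing water, maintained for the test.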

downy brome = test: Test C pre-/postemergence test; type: in vivo, Bromus tectorum
In short: as §1

Russian thistle = test: Test C pre-/postemergence test; type: in vivo, Salsola kali; details: for Plant response rating, Russian Thistle: scale 0 to 100 (0 no effect, 100 complete control)
From the text: Seeds of plant species selected from blackgrass (Alopecurus myosuroides), downy brome (Bromus tectorum), green foxtail (Setaria viridis), Italian ryegrass (Lolium multiflorum), wheat (Triticum aestivum), wild oat (Avena fatua), catchweed bedstraw (Galium aparine), Russian thistle (Salsola kali), […] (Cynodon dactylon), Surinam grass (Brachiaria decumbens), cocklebur (Xanthium strumarium), corn (Zea mays), crabgrass (Digitaria sanguinalis), woolly cupgrass (Eriochloa villosa), giant foxtail (Setaria faberii), Goosegrass (Eleusin indica), johnsongrass (Sorghum halepense), kochia (Kochia scoparia), lambsquarters (Chenopodium album), morningglory (Ipomoea coccinea), eastern black nightshade (Solanum ptycanthum), yellow nutsedge (Cyperus esculentus), pigweed (Amaranthus retroflexus), common ragweed (Ambrosia elation), soybean (Glycine max), common (oilseed) sunflower (Helianthus annuus), and velvetleaf (Abutilon theophrasti) were planted and treated preemergence with test chemicals formulated in a non-phytotoxic solvent mixture which included a surfactant. At the same time, plants selected from these crop and weed species and also winter barley (Hordeum vulgare), canarygrass (Phalaris minor), and chickweed (Stellaria media) were treated with postemergence applications of some of the test chemicals formulated in the same manner. Plants ranged in height from 2 to 18 cm (1- to 4-leaf stage) for postemergence treatments. […] At time of treatment, test pots were flooded to 3 cm above the soil surface, treated by application of test compounds directly to the paddy water, and then maintained at that water depth for the duration of the test. […] A dash (-) response means no test result.

[1] = Postemergence, 500 g ai/ha, 0 is no effect, 100 is complete control
[2] = Preemergence, 125 g ai/ha, 0 no effect, 100 complete control
[3] = 62 g ai/ha, Preemergence, scale 0 to 100
[4] = 125 g ai/ha, preemergence, scale 0 (no effect) to 100 (complete control)
[5] = preemergence, 250 g ai/ha, scale 0 (no effect) to 100 (complete control)
[6] = Preemergence, 31 g ai/ha, scale 0 to 100 (0 no effect, 100 complete control)
[7] = Preemergence, 500 g ai/ha, 0 no effect, 100 complete control
[8] = Postemergence, 125 g ai/ha, 0 is no effect, 100 is complete control
[9] = 31 g ai/ha, Preemergence, scale 0 to 100
[10] = 62 g ai/ha, preemergence, scale 0 (no effect) to 100 (complete control)
[11] = preemergence, 125 g ai/ha, scale 0 (no effect) to 100 (complete control)

Compound	Plant response rating, Crabgrass, Large (crabgrass; Postemergence, 125 g ai/ha)	Crabgrass, Large plant response rating (crabgrass; [1])	Crabgrass, Large plant response rating (crabgrass; [2])	Plant response rating, Crabgrass, Large (crabgrass; Preemergence, 500 g ai/ha)	Galium plant response rating (catchweed bedstraw; [3])	Galium plant response rating (catchweed bedstraw; [4])	Plant response rating, Galium (catchweed bedstraw; Preemergence, 31 g ai/ha)	Galium plant response rating (catchweed bedstraw; [5])	Bromegrass, Downy plant response rating (downy brome; [3])	Bromegrass, Downy plant response rating (downy brome; [4])	Plant response rating, Bromegrass, Downy (downy brome; [6])	Bromegrass, Downy plant response rating (downy brome; [5])	Russian Thistle plant response rating (Russian thistle; [3])	Russian Thistle plant response rating (Russian thistle; [4])	Plant response rating, Russian Thistle (Russian thistle; Preemergence, 31 g ai/ha)	Russian Thistle plant response rating (Russian thistle; [5])	Crabgrass, Large plant response rating (crabgrass; [8])	Plant response rating (0 to 100), Galium (catchweed bedstraw; Preemergence, 250 g ai/ha)	Plant response rating (0 to 100), Bromegrass, Downy (downy brome; Preemergence, 250 g ai/ha)	Bromegrass, Downy plant response rating (downy brome; [11])	also measured
Cc1cc[n+]([O-])c(S(=O)(=O)Cc2c(C(F)(F)F)nn(C)c2OCC(F)F)c1 [Compound 94]	70	90	90	100	100	100	95	100	75	80	10	95	100	100	100	100					
CCc1cc[n+]([O-])c([S+]([O-])Cc2c(C(F)(F)F)nn(C)c2OC(F)F)c1 (centres unmarked) [Compound 101]	60	90	90		50	98	0	100	45	90	40	100	100	100	100	100					Crabgrass, Large plant response rating (crabgrass; [7]): 100
Cn1nc(C(F)(F)F)c(C(Cl)S(=O)(=O)c2cccc[n+]2[O-])c1Cl (centres unmarked) [Compound 12]		70	70	100													60	100	0	0	Galium plant response rating (catchweed bedstraw; [9]): 80; Galium plant response rating (catchweed bedstraw; [10]): 100; Galium plant response rating (catchweed bedstraw; [11]): 100; Bromegrass, Downy plant response rating (downy brome; [9]): 0; Bromegrass, Downy plant response rating (downy brome; [10]): 0; Russian Thistle plant response rating (Russian thistle; [9]): 100; Russian Thistle plant response rating (Russian thistle; [10]): 100; Plant response rating (0 to 100), Russian Thistle (Russian thistle; Preemergence, 250 g ai/ha): 100; Russian Thistle plant response rating (Russian thistle; [11]): 100
Cn1nc(C(F)(F)F)c(C[S+]([O-])c2ccc(F)c[n+]2[O-])c1Cl (centres unmarked) [Compound 54]	20	80	80	90	0	85	0	85	0	10	0	60	30	100	0	100					
CC(c1c(C(F)(F)F)nn(CC(F)(F)F)c1Cl)[S+]([O-])c1cccc[n+]1[O-] (centres unmarked) [Compound 46]	70	80	70	100	0	85	0	90	0	10	0	15	0	100		100					
[O-][n+]1cc(Cl)ccc1[S+]([O-])Cc1c(C(F)(F)F)nn(CC(F)(F)F)c1Cl (centres unmarked) [Compound 47]	80	90	80	100	85	90	80	100	0	10	0	50		0		100					Plant response rating (0 to 100), Bromegrass, Downy (downy brome; Postemergence, 31 g ai/ha): 0; Plant response rating, Bromegrass, Downy (downy brome; Postemergence, 62 g ai/ha, scale 0 to 100, 0 no effect, 100 complete control): 0; Plant response rating, Bromegrass, Downy (downy brome; Postemergence, 125 g ai/ha, scale 0 to 100, 0 no effect, 100 complete control): 0; Plant response rating, Bromegrass, Downy (downy brome; Postemergence, 250 g ai/ha, scale 0 to 100, 0 no effect, 100 complete control): 10
Cn1nc(C(F)(F)F)c(CS(=O)(=O)c2cc(C(C)(C)C)cc[n+]2[O-])c1OC(F)F [Compound 25]		70	90	100	98		70		0		0		100		100		10	100	50	0	
CCc1cc[n+]([O-])c(S(=O)(=O)Cc2c(C(F)(F)F)nn(C)c2OC(F)F)c1 [Compound 102]	60	90	90		95	100	30	100	100	100	50	100	100	100	100	100					Crabgrass, Large plant response rating (crabgrass; [7]): 90
CC(c1c(C(F)(F)F)nn(C)c1OC(F)F)S(=O)(=O)c1cc(C(C)(C)C)cc[n+]1[O-] (racemic) [Compound 26]		40	90	100	85		50		45		0		50		0		20	100	60	45	
Cn1nc(C(F)(F)F)c(CS(=O)(=O)c2ccc(Cl)c[n+]2[O-])c1Cl [Compound 18]		80	80	90	0		0		0		0		30		0		60	90	0	0	
